Structures are written as SMILES.

The experiment concerns A2780. As to the kind of experiment: Antiproliferative activity against drug-sensitive human A2780 cells assessed as inhibition of cell growth after 2 days by Alamar Blue assay. As to conditions: A2780, 48 h. It counts as functional, cell-based. On the technique in general: Alamar Blue is a resazurin reagent that responds to reducing activity.
As to `CCCCCCCC/C=C\CCCCCCCCCCC[C@]1(O)C(=O)C=C[C@H](O)[C@H]1O`, the IC50 was determined as 800 nM.
In the case of `CCCCCCCC/C=C\CCCCCCC[C@]1(O)C(=O)C=C[C@H](O)[C@H]1O` it was 800 nM.
In the case of `CCCCCCCC/C=C\CCCCCCCCC[C@]1(O)C(=O)C=C[C@H](O)[C@H]1O`, the IC50 was found to be 700 nM.

A word on the IC50: it is the midpoint of a concentration-inhibition curve.

Source of the values: ChEMBL document CHEMBL3600308, “Antiproliferative Trihydroxyalkylcyclohexenones from Pleiogynium timoriense” (J Nat Prod, 2015).
